Measurements reported in patent publication US11845803B2, “Combination therapies for treatment of BCMA-related cancers and autoimmune disorders” (Fred Hutchinson Cancer Center, priority 2017, dated 2023).

Experiments:
[1] = test system: myeloma cell lines (8226, U266B1, MM1.R, H929); assay: Surface BCMA expression on myeloma cell lines incubated with GSI, flow cytometry; assay type: cell-based, human
Description: (A) Cell surface BCMA was measured on four myeloma cell lines (8226, U266B1, MM1.R, H929) by flow cytometry with an anti-BCMA monoclonal antibody before, and 5 hours after (see diagrams), incubation of the myeloma cell lines with GSI RO4929097 in a range of concentrations from 0 μM (DMSO control) to 1.0 μM. (E) U266 myeloma cells were incubated for 1, 3, 5 and 24 hours in the presence of various concentrations of GSI RO429097 (0.01 μM, 0.1 μM and 1.0 μM) and evaluated for surface BCMA expression by flow cytometry. […] (F) Fold change of surface BCMA expression on cell lines (MM1R=triangle; U266=square; 8226=circle) cultured in 1 μM GSI over time. GSI was re-administered as a half media change every 2 days. Fold change in BCMA is defined as Treated (MFIBCMA-MFIiso)/Control (MFIBCMA-MFIiso). Data is representative of at least 2 independent experiments. To examine the effect of γ-secretase inhibition on BCMA levels on myeloma cells, γ-secretase inhibitor (GSI) RO4929097 was used. […] To examine the effect of GSI on surface BCMA expression kinetics, U266 myeloma cells were incubated for 1, 3, 5 and 24 hours in the presence of various concentrations of GSI RO429097 (0.01 μM, 0.1 μM and 1.0 μM) and evaluated for cell surface BCMA expression by flow cytometry. […] The upregulation persisted over 7 days of culture in 1.0 μM GSI (FIG. 3F). Next, the effect of removing GSI from MM cell culture was examined. […] Finally, the viability of the tested MM cell lines was not affected by addition of 1.0 μM RO429097 to culture (FIG. 3L).

[2] = test system: MM.1R myeloma cells in NSG mice; assay: GSI activity in disseminated MM.1R xenograft model (surface BCMA, serum sBCMA); assay type: in vivo, mouse
Description: (A) Experimental scheme for a disseminated xenograft murine myeloma model. NSG mice were irradiated (275 rad) to facilitate tumor engraftment and received human MM tumor cells (5×10^6 MM.1R) followed by GSI treatment (30 mg/kg). […] (B) Fold change in surface BCMA expression on myeloma cells in mice euthanized at the indicated timepoints following the second GSI administration. (C) Levels of sBCMA in sera from mouse sacrificed at the indicated timepoints after administration of RO4929097. To investigate whether the sBCMA-inhibiting effects of GSI RO4929097 described in Example 4 could be replicated in vivo, a mouse xenograft model of human MM was tested as illustrated in FIG. 6A. Briefly, immunodeficient NOD/SCID gamma (NSG) mice (The Jackson Laboratory) received sublethal irradiation (275 rad) at day −1, followed by 5×10^6 MM.1R cells the next day (day 0). GSI RO4929097 (30 mg/kg) was administered by oral gavage at day 19 and day 20. Mice were sacrificed at different times after the second gavage administration of the GSI and blood and bone marrow samples were taken for analysis. GSI dosing was followed by a rapid increase (>3-fold by 4 hours post-second gavage) in surface BCMA expression on the tumor cells (FIG. 6B) and a concurrent decrease in sBCMA (FIG. 6C).

SMILES: CC(C)(C(=O)NCC(F)(F)C(F)(F)F)C(=O)N[C@@H]1C(=O)Nc2ccccc2-c2ccccc21 [RO4929097]
- persistence of surface BCMA upregulation in culture ([1]; 1.0 μM GSI, GSI re-administered every 2 days): ≥ 7 days
- surface BCMA on myeloma cell lines ([1]; GSI 0.001 μM to 1.0 μM): rapidly upregulated
- time of peak increase in surface BCMA expression ([1]; U266, 0.01-1.0 μM GSI): 5 h
- cell surface BCMA expression on U266 cells ([1]; U266, 1, 3, 5 and 24 hours, 0.01, 0.1 and 1.0 μM): increased in a dose-dependent manner
- surface BCMA levels following removal of GSI ([1]; after removal of 1.0 μM GSI): decreased
- time after second gavage within which observed effects were generally reduced ([2]; 30 mg/kg oral gavage): ≤ 48 h
- sBCMA in sera ([2]; 30 mg/kg oral gavage day 19 and 20): decrease
- increase in surface BCMA expression on tumor cells ([2]; 30 mg/kg oral gavage day 19 and 20, 4 hours post-second gavage): > 3 fold
